≈ marks a conversion by molar mass, not a printed value. Read-outs that look alike come from different tables or passages of the source.
Experiments:
[1] = oral 400 mg, healthy volunteers, cited from earlier work
[2] = system: Escherichia coli Enteroaggregative; settings: 75 strains; cited from earlier work
Yersinia enterocolitica = settings: 74 strains; cited from earlier work
Shigella species = settings: 36 strains; cited from earlier work
Other = settings: 21 strains; cited from earlier work
Helicobacter pylori = settings: 40 strains; MIC50 instead of MIC90; cited from earlier work
physchem = type: physicochemical; settings: thermodynamic from solid
Excerpt: Another embodiment relates to various methods for screening and analyzing methods and preparations that are intended to enhance the dissolution of poorly soluble drugs. These analysis methods include dissolution studies, saturation solubility studies, wettability studies, permeation studies, X-ray diffraction studies etc.

Salmonella species = settings: 46 strains; cited from earlier work
E. Coli = assay: Anti-microbial activity by cup plate / well plate method (zone of inhibition); type: cell-based; settings: 200 μl per well, 37° C., 24 hrs
Experimental: The measurement of zone diameters estimates the susceptibility of bacteria to antimicrobial compounds.
Prepare a nutrient agar medium in distilled water and sterilize this media in autoclave at 121° C. for 15 min. Transfer this media aseptically in sterile petriplate, allow the media to solidify for few minutes. After solidification, add test micro-organism i.e. E. Coli (100 μl) in each plate and spread this culture with the help of spreader. Prepare the well in plate with the help of borer.

[3] = system: Escherichia coli Enterotoxigenic; settings: 97 strains; cited from earlier work
Campylobacter jejuni = settings: cited from earlier work
Vibrio cholerae = settings: 403 strains; cited from earlier work
[4] = system: MDCK (Mardin Darby Canine Kidney Cells) cells; assay: Permeability study using MDCK cells in transwell plates; type: in vitro ADME; settings: 10 μmolar apical, 37° C., 2 hours
Experimental: Three well are to be used per sample. Plates are placed in shaking water bath at 37° C. for 2 hours. Take out 20 μl from apical and 100 μl from basolateral side for sample processing at […]. Lucifer Yellow is used as a marker to see the monolayer integrity of the cells. Propronalol is used as a permeability marker.
Relative area in apical remain 100% even after 2 hours.

Row | SMILES | dose recovered in feces ([1]; almost entirely as unchanged drug) | dose recovered in the urine [1] [%] | MIC90 [2] [µg/mL] | MIC90 (Yersinia enterocolitica) [µg/mL] | MIC90 (Shigella species) [µg/mL] | MIC90 (Other) [µg/mL] | MIC50 (Helicobacter pylori) | solubility (physchem; pH 6.8, aqueous buffer) [µg/mL] | solubility (physchem; water) [µg/mL] | MIC90 (Salmonella species) [µg/mL] | area of zone of inhibition (E. Coli) | MIC90 [3] [µg/mL] | MIC90 (Campylobacter jejuni; 9 strains) [µg/mL] | MIC90 (Campylobacter jejuni; 54 strains) [µg/mL] | MIC90 (Vibrio cholerae) [µg/mL] | amount found in the basolateral side of the transwell (apparent permeability) [4]
1 | CO[C@H]1/C=C/O[C@@]2(C)Oc3c(C)c(O)c4c(O)c(c5c(nc6cc(C)ccn65)c4c3C2=O)NC(=O)/C(C)=C\C=C\[C@H](C)[C@H](O)[C@@H](C)[C@@H](O)[C@@H](C)[C@H](OC(C)=O)[C@@H]1C [14C-rifaximin] | approximately 97% | 0.32 | – | – | – | – | – | – | – | – | – | – | – | – | – | –
2 | CO[C@H]1/C=C/O[C@@]2(C)Oc3c(C)c(O)c4c(O)c(c5c(nc6cc(C)ccn65)c4c3C2=O)NC(=O)/C(C)=C\C=C\[C@H](C)[C@H](O)[C@@H](C)[C@@H](O)[C@@H](C)[C@H](OC(C)=O)[C@@H]1C [rifaximin] | – | – | 32 (≈ 40.7 µM) | 16 (≈ 20.4 µM) | 64 (≈ 81.4 µM) | 4 (≈ 5.09 µM) | 4 (MIC50) μg/ml | 10 (≈ 12.7 µM) | < 10 | 64 (≈ 81.4 µM) | very negligible | 32 (≈ 40.7 µM) | 32 (≈ 40.7 µM) | 128 (≈ 163 µM) | 4 (≈ 5.09 µM) | No detectable amount
